The source of these data is US20250281508A1, “CATIONIC STEROIDAL ANTIMICROBIAL SALTS” (BRIGHAM YOUNG UNIVERSITY, priority 2015, published 2025).

Series [1] in a line: Solvent solubility test (solvent addition technique). The class given is physicochemical. How it is done:
(§1) Solubility values were estimated by a solvent addition technique, based on the following protocol: CSA-13 (20 mg) was weighed and individually distributed to 24 vials. Each solvent was added to the appropriate vial in 10 aliquots of 10 μL, 5 aliquots of 20 μL, 3 aliquots of 100 μL, and 1 aliquot of 500 μL. If complete dissolution was observed, the additions were stopped. Between additions, the sample was stirred to further encourage dissolution. If […] of solvent was added without dissolution, the solubility was calculated to be below this point. Polarized light microscopy analysis was performed on solids obtained from acetonitrile, 1,4-dioxane, ethyl acetate, isopropanol, and THF.
A solubility screen was performed as described above for the sulphate salt of CSA-13.
as §1, with “CSA-44” for “CSA-13”, “from acetone,” for “from”, “1,4-dioxane, ethanol,” for “1,4-dioxane,”, “acetate,” for “acetate, isopropanol,”, “methanol.” for “THF.”

Series [2] in a line: Stability of CSA-13 salts: purity under various conditions. The class given is physicochemical. How it is done:
Approximately 300 mg of CSA-13 was weighed into a scintillation vial. 6 mL of tetrohydrofuran was added to the vial. Hydrochloric acid (2 equivalents) was then added to the vial. […] Solids were isolated and dried at ambient temperature prior to analysis.

The nature of series [3]: Dynamic vapor sorption (DVS) analysis, XRPD before and after. The class given is physicochemical. The text has this: FIG. 9 provides an overlay of the XRPD spectrum pre- and post-DVS analysis.
Series [4] can be described thus: Coating stability (sluff off) of polyurethane coatings on medical devices immersed in water. The class given is physicochemical. As for the experimental part:
In a first comparative test, medical devices made from various substrate materials (i.e., stainless steel, titanium, and silicone) were coated with polyurethane coatings containing either di-NDSA salts of CSA compounds (i.e., CSA-13 and/or CSA-131) or HCl acid addition salts of the same CSA compounds, and then tested for long-term stability when immersed in water. Coating stability was determined by measuring how fast the coatings began to sluff off from the medical device. The NDSA salts are di-addition salts.

A short description of series [5]: Coating stability (sluff off) of silicone coatings on medical devices immersed in water. The class given is physicochemical. As for the experimental part:
In a second comparative test, medical devices made from various substrate materials (i.e., stainless steel, titanium, and silicone) were coated with silicone coatings containing either di-NDSA salts of CSA compounds (i.e., CSA-13 and/or CSA-131) or HCl acid addition salts of the same CSA compounds, and then tested for long-term stability when immersed in water. Coating stability was determined by measuring how fast the coatings began to sluff off from the medical device.

Series [6] is described as follows: Rate of elution of CSA from polyurethane coatings immersed in water. The class given is physicochemical. The text has this: In a third comparative test, medical devices made from various substrate materials (i.e., stainless steel, titanium, and silicone) were coated with polyurethane coatings containing either a di-NDSA salt of a representative CSA compound (i.e., CSA-131) or the HCl acid addition salt of the same CSA compound, and then tested to determine the rate of elution of the CSA compound from the coated medical device when immersed in water.

Series [7] in a line: Rate of elution of CSA from silicone coatings immersed in water. The class given is physicochemical. The text has this: In a fourth comparative test, medical devices made from various substrate materials (i.e., stainless steel, titanium, and silicone) were coated with silicone coatings containing either a di-NDSA salt of a representative CSA compound (i.e., CSA-131) or the HCl acid addition salt of the same CSA compound, and then tested to determine the rate of elution of the CSA compound from the coated medical device when immersed in water.

Series [8] in a line: Rate of elution of CSA from impregnated PLGA copolymer devices immersed in water. The class given is physicochemical. The following applies: impregnated PLGA copolymer device. The text has this: In a fifth comparative test, medical devices were made from PLGA copolymer impregnated with either a di-NDSA salt of a representative CSA compound (i.e., CSA-131) or the HCl acid addition salt of the same CSA compound, and then tested to determine the rate of elution of the CSA compound from the medical device when immersed in water.

A short description of series [9]: Reactivity with ethylene oxide (EtO) in polyurethane coating, by mass spectroscopy. The class given is physicochemical. The following applies: ETT with polyurethane coating sterilized multiple times with EtO. The text has this: In a seventh comparative test, the elution rate and antibacterial activity of polyurethane coatings containing either the di-NDSA salt of a representative CSA compound (i.e., CSA-131) or the HCl acid addition salt of the same CSA compound following sterilization with ethylene oxide (EtO) were compared, and also the tendency of the acid addition salt of the CSA compound to react with the EtO.
For EtO reactivity with the HCl acid addition salt of CSA-131, the following percentages of CSA-131 and CSA-131-EtO adducts were observed via mass spectroscopy following EtO treatment of a medical device with a polyurethane coating containing the HCl acid addition salt of CSA-131.
Moreover, elution of CSA-131 from the ETT with the same polyurethane coating containing the di-NDSA of CSA-131 remained relatively consistent for 96 hours, providing continuous activity against biofilms. This is shown by the data in Table 25.

Series [10] is described as follows: Elution of CSA-131 from polyurethane coating following EtO sterilization. The class given is physicochemical. Conditions: for % of Total μg on OD: total CSA-131 content on OD 3976 μg; for Eluted Amount in μg/cm^3: total OD surface area 99.4 cm^2; for Average Amount Eluted: ETT polyurethane coating. As for the experimental part: The elution rate of CSA-131 from the same polyurethane coating containing the HCl acid addition salt of CSA-131 (with solution exchange every 24 hours) is shown in Table 24: […] Moreover, elution of CSA-131 from the ETT with the same polyurethane coating containing the di-NDSA of CSA-131 remained relatively consistent for 96 hours, providing continuous activity against biofilms. This is shown by the data in Table 25.

The mark [11] stands for this setting: polyurethane coating on Silicone.
The mark [12] stands for this setting: polyurethane coating on Stainless Steel.
[13] abbreviates: polyurethane coating on Titanium.
[14] abbreviates: silicone coating on Stainless Steel.

With `CCCCCCCCNCCCC(C)C1CCC2C3C(OCCCN)CC4CC(OCCCN)CCC4(C)C3CC(OCCCN)C12C.O=S(=O)(O)O` (stereo not shown) [sulphate salt of CSA-13], the “Approximate Solubility at 22° C.” value in [1] (solvent 1,4-dioxane) is recorded as less than 11.3 mg/mL; in series [1] (solvent 1-butanol), more than 37.7 mg/mL; in [1] (solvent 2-propanol), more than 20.9 mg/mL; in [1] (solvent Acetone), less than 10.5 mg/mL; in [1] (solvent Acetonitrile), less than 10.4 mg/mL; in series [1] (solvent Dichloromethane), more than 193.9 mg/mL. The “Approximate Solubility at 22° C.” value was more than 98.4 mg/mL in series [1] (solvent Ethanol); more than 199.7 mg/mL in series [1] (solvent Methanol); less than 10.1 mg/mL in series [1] (solvent TBME); less than 11.0 mg/mL in series [1] (solvent Tetrahydrofuran); more than 102.8 mg/mL in [1] (solvent Toluene). Also, the “Purity (%)” value turned out to be 97.50% in series [2] (40° C./75% RH), 97.96% in [2] (80° C.), 99.76% in series [2] (Ambient light) and 99.34% in series [2] (Starting Purity).
Turning to `CCCCCCCCCCCCNCCCC(C)C1CCC2C3C(OCCCN)CC4CC(OC(=O)CCN)CCC4(C)C3CC(OCCCN)C12C.O=S(=O)(O)c1cccc2c(S(=O)(=O)O)cccc12.O=S(=O)(O)c1cccc2c(S(=O)(=O)O)cccc12` (stereo not shown) [CSA-131 NDSA], in [3] (XRPD after DVS analysis (FIG. 8, 9)), the “Effect of DVS analysis on crystallinity” value is reported as “did not significantly impact crystallinity”. The DVS hysteresis entry in series [3] (dynamic vapor sorption isotherm (FIG. 7)) was “minimal hysteresis”. The “Sluff Off Time” value in series [4] (setting [11]), in series [4] (setting [12]), in series [4] (setting [13]), in series [5] (silicone coating on Silicone), in series [5] (setting [14]) and in series [5] (silicone coating on Titanium) was “None after 30+ days” throughout. Further, the “Time for 50% of CSA to elute” value in [6] (setting [11]), in [6] (setting [12]), in series [6] (setting [13]), in series [7] (silicone coating on Silicone), in [7] (setting [14]) and in [7] (silicone coating on Titanium) was more than 7 days each time. The “Time for 50% of CSA to elute” value in series [8] is given as more than 7 days. Further, the “EtO adducts observed by mass spectroscopy” value in series [9] was “no EtO adducts were observed”. For the same compound, the “% of Total μg on OD” value in series [10] (0-24 hours) is reported as 2.37%; in series [10] (24-48 hours) it was 2.14%; in series [10] (48-72 hours), 1.63%; in [10] (72-96 hours), 2.01%; in [10] (Total over 0-96 hours) it was 8.15%. Also, the “Eluted Amount in μg/cm^3” value in [10] (0-24 hours) is 0.95 μg/cm^2; in [10] (24-48 hours), 0.85 μg/cm^2; in [10] (48-72 hours), 0.65 μg/cm^2; in [10] (72-96 hours), 0.81 μg/cm^2; in series [10] (Total over 0-96 hours) it was 3.26 μg/cm^2. Also, the “Average Amount Eluted” value in series [10] (Total over 0-96 hours) is 324 µg; in series [10] (time interval 0-24 hours), 94.3 µg; in series [10] (time interval 24-48 hours), 84.9 µg; in series [10] (time interval 48-72 hours), 64.9 µg; in series [10] (time interval 72-96 hours), 80.1 µg. Also, for the setting “ethanol”, the “Solubility in Ethanol” value was less than 0.05 mg/mL. Where the note is “water”, the “Solubility in Water” value is less than 0.02 mg/mL.
As for `CCCCCCCCNCCCC(C)C1CCC2C3C(OCCCN)CC4CC(OCCCN)CCC4(C)C3CC(OCCCN)C12C.O=S(=O)(O)c1cccc2c(S(=O)(=O)O)cccc12.O=S(=O)(O)c1cccc2c(S(=O)(=O)O)cccc12` (stereo not shown) [CSA-13 NDSA], the “Purity (%)” value in [2] (40° C./75% RH) is reported as 97.93%; in [2] (80° C.), 98.16%; in series [2] (Ambient light), 98.57%; in [2] (Starting Purity), 98.52%. The “Sluff Off Time” value in [4] (setting [11]), in series [4] (setting [12]), in series [4] (setting [13]), in series [5] (silicone coating on Silicone), in series [5] (setting [14]) and in [5] (silicone coating on Titanium) was “None after 30+ days” throughout.
